Columns and labels:
HIV protease = target: T1, HIV protease (Human immunodeficiency virus type 1 group M subtype B, UniProt P04585); experiment: Recombinant HIV Protease HPLC Assay; format: biochemical; conditions: Table V; 37°, 30 min, pH 5.5
T1 construct: HIV protease was expressed in E. coli; made in house; host or cells: E. coli (plasmid pBRT1 prt+)
Outline: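 Recombinant protease from E. coli (pBRT1 prt+ construct), purified and diluted 1/38 for use, cleaves the decapeptide substrate VSFNFPQITL-NH2, containing an HIV polyprotein cleavage site. Inhibition of cleavage is monitored by HPLC.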

[1] = tested on: HIV (H9/HTLV-IIIB) in C8166 cells; experiment: plaque assay: inhibition of syncytia formation in HIV-infected C8166 cells; format: cell-based; conditions: Table V, 72 h, 50% inhibition of syncytia formation
Outline: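 C8166 cells (5×10^4/well) infected with 50× TCID50 H9/HTLV-IIIB in HEPES-buffered RPMI 1640 (pH 7.2), 10% FCS, with test compound in triplicate; 72 h at 37°, 5% CO2. Syncytia centers counted by phase-contrast microscopy; EC50 from percent inhibition versus serial dilutions by non-linear regression.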

[2] = Human immunodeficiency virus 1, IIIB

IC50 (HIV protease) [nM]	EC50 [1, 2] [nM]	Compound	EC50 [1] [nM]
3.9	24	CC(C)[C@H](NC(=O)c1ccc2ccccc2n1)C(=O)N[C@@H](Cc1ccccc1)[C@H](O)CN1CC[C@@H](OCc2ccccn2)C[C@H]1C(=O)NC(C)(C)C [Table V, entry 3, N-tert-butyl-1-{2(R)-hydroxy-4-phenyl-3(S)-{{N-(2-quinolylinylcarbonyl)valyl}amino}butyl}-4(R)-(2-pyridinylmethoxy)piperidine-2-carboxamide]	–
2.7	8	Cc1cc(C)nc(S[C@@H]2CCN(C[C@@H](O)[C@H](Cc3ccccc3)NC(=O)[C@@H](NC(=O)c3ccc4ccccc4n3)C(C)C)[C@H](C(=O)NC(C)(C)C)C2)n1 [Table V, entry 4, N-tert-butyl-1-{2(R)-hydroxy-4-phenyl-3(S)-{{N-(2-quinolylinylcarbonyl)valyl}amino}butyl}-4(R)-{(4,6-dimethyl-2-pyrimidinyl)thio}piperidine-2-carboxamide]	–
1.5	3	CC(C)[C@H](NC(=O)c1ccc2ccccc2n1)C(=O)N[C@@H](Cc1ccccc1)[C@H](O)CN1CC[C@@H](Sc2ccncc2)C[C@H]1C(=O)NC(C)(C)C [Table V, entry 5, N-tert-butyl-1-{2(S)(R)-hydroxy-4-phenyl-3(S)-{{N-(2-quinolylinylcarbonyl)valyl}amino}butyl}-4(R)-(4-pyridinylthio)piperidine-2-carboxamide]	–
1.9	4	CC(C)[C@H](NC(=O)c1ccc2ccccc2n1)C(=O)N[C@@H](Cc1ccccc1)[C@H](O)CN1CC[C@@H](Sc2ccccn2)C[C@H]1C(=O)NC(C)(C)C [Table V, entry 6, N-tert-butyl-1-{2(S)(R)-hydroxy-4-phenyl-3(S)-{{N-(2-quinolylinylcarbonyl)valyl}amino}butyl}-4(R)-(2-pyridinylthio)piperidine-2-carboxamide]	–
3.4	14	CC(C)[C@H](NC(=O)c1ccc2ccccc2n1)C(=O)N[C@@H](Cc1ccccc1)[C@H](O)CN1CC[C@@H](Oc2ccccc2)C[C@H]1C(=O)NC(C)(C)C [Table V, entry 7, N-tert-butyl-1-{2(S)(R)-hydroxy-4-phenyl-3(S)-{{N-(2-quinolylinylcarbonyl)valyl}amino}butyl}-4(R)-phenoxypiperidine-2-carboxamide]	–
2.2	3	CC(C)[C@H](NC(=O)c1ccc2ccccc2n1)C(=O)N[C@@H](Cc1ccccc1)[C@H](O)CN1CC[C@@H](SCc2cccnc2)C[C@H]1C(=O)NC(C)(C)C [Table V, entry 8, N-tert-butyl-1-{2(S)(R)-hydroxy-4-phenyl-3(S)-{{N-(2-quinolylinylcarbonyl)valyl}amino}butyl}-4(R)-{(3-pyridinylmethyl)thio}piperidine-2-carboxamide]	–
4.2	5	CC(C)[C@H](NC(=O)c1ccc2ccccc2n1)C(=O)N[C@@H](Cc1ccccc1)[C@H](O)CN1CC[C@@H](SCc2ccccn2)C[C@H]1C(=O)NC(C)(C)C [Table V, entry 9, N-tert-butyl-1-{2(S)(R)-hydroxy-4-phenyl-3(S)-{{N-(2-quinolylinylcarbonyl)valyl}amino}butyl}-4(R)-{(2-pyridinylmethyl)thio}piperidine-2-carboxamide]	–
3.2	25	CC(C)[C@H](NC(=O)c1ccc2ccccc2n1)C(=O)N[C@@H](Cc1ccccc1)[C@H](O)CN1CC[C@@H](Oc2ncccn2)C[C@H]1C(=O)NC(C)(C)C [Table V, entry 10, N-tert-butyl-1-{2(S)(R)-hydroxy-4-phenyl-3(S)-{{N-(2-quinolylinylcarbonyl)valyl}amino}butyl}-4(R)-(2-pyrimidinyloxy)piperidine-2-carboxamide]	–
4	20	Cc1cc(C)nc(O[C@@H]2CCN(C[C@@H](O)[C@H](Cc3ccccc3)NC(=O)[C@@H](NC(=O)c3ccc4ccccc4n3)C(C)C)[C@H](C(=O)NC(C)(C)C)C2)n1 [Table V, entry 11, N-tert-butyl-1-{2(S)(R)-hydroxy-4-phenyl-3(S)-{{N-(2-quinolylinylcarbonyl)valyl}amino}butyl}-4(R)-{(4,6-dimethyl-2-pyrimidinyl)oxy}piperidine-2-carboxamide]	–
4.5	44	Cc1ccnc(O[C@@H]2CCN(C[C@@H](O)[C@H](Cc3ccccc3)NC(=O)[C@@H](NC(=O)c3ccc4ccccc4n3)C(C)C)[C@H](C(=O)NC(C)(C)C)C2)n1 [Table V, entry 12, N-tert-butyl-1-{2(S)(R)-hydroxy-4-phenyl-3(S)-{{N-(2-quinolylinylcarbonyl)valyl}amino}butyl}-4(R)-{(4-methyl-2-pyrimidinyl)oxy}piperidine-2-carboxamide]	–
3.6	17	Cc1cc(O[C@@H]2CCN(C[C@@H](O)[C@H](Cc3ccccc3)NC(=O)[C@@H](NC(=O)c3ccc4ccccc4n3)C(C)C)[C@H](C(=O)NC(C)(C)C)C2)nc(C)n1 [Table V, entry 13, N-tert-butyl-1-{2(S)(R)-hydroxy-4-phenyl-3(S)-{{N-(2-quinolylinylcarbonyl)valyl}amino}butyl}-4(R)-{(2,6-dimethyl-4-pyrimidinyl)oxy}piperidine-2-carboxamide]	–
2.6	22	CC(C)[C@H](NC(=O)c1ccc2ccccc2n1)C(=O)N[C@@H](Cc1ccccc1)[C@H](O)CN1CC[C@@H](Oc2ccc(F)cc2)C[C@H]1C(=O)NC(C)(C)C [Table V, entry 15, N-tert-butyl-1-{2(S)(R)-hydroxy-4-phenyl-3(S)-{{N-(2-quinolylinylcarbonyl)valyl}amino}butyl}-4(R)-{(4-fluorophenyl)oxy}piperidine-2-carboxamide]	–
4.2	22	CC(C)[C@H](NC(=O)c1ccc2ccccc2n1)C(=O)N[C@@H](Cc1ccccc1)[C@H](O)CN1CC[C@@H](OCc2ccncc2)C[C@H]1C(=O)NC(C)(C)C [Table V, entry 16, N-tert-butyl-1-{2(S)(R)-hydroxy-4-phenyl-3(S)-{{N-(2-quinolylinylcarbonyl)valyl}amino}butyl}-4(R)-(4-pyridinylmethoxy)piperidine-2-carboxamide]	–
2.4	33	CC(C)[C@H](NC(=O)c1ccc2ccccc2n1)C(=O)N[C@@H](Cc1ccccc1)[C@H](O)CN1CC[C@@H](S(=O)(=O)Cc2ccccn2)C[C@H]1C(=O)NC(C)(C)C [Table V, entry 17, N-tert-butyl-1-{2(S)(R)-hydroxy-4-phenyl-3(S)-{{N-(2-quinolylinylcarbonyl)valyl}amino}butyl}-4(R)-{(2-pyridinylmethyl)sulfonyl}piperidine-2-carboxamide]	–
1.8	67	CC(C)[C@H](NC(=O)c1ccc2ccccc2n1)C(=O)N[C@@H](Cc1ccccc1)[C@H](O)CN1CC[C@@H](S(=O)(=O)Cc2cccnc2)C[C@H]1C(=O)NC(C)(C)C [Table V, entry 18, N-tert-butyl-1-{2(S)(R)-hydroxy-4-phenyl-3(S)-{{N-(2-quinolylinylcarbonyl)valyl}amino}butyl}-4(R)-{(3-pyridinylmethyl)sulfonyl}piperidine-2-carboxamide]	–
4.6	73	CC(C)[C@H](NC(=O)c1ccc2ccccc2n1)C(=O)N[C@@H](Cc1ccccc1)[C@H](O)CN1CC[C@@H](S(=O)(=O)Cc2ccncc2)C[C@H]1C(=O)NC(C)(C)C [Table V, entry 19, N-tert-butyl-1-{2(S)(R)-hydroxy-4-phenyl-3(S)-{{N-(2-quinolylinylcarbonyl)valyl}amino}butyl}-4(R)-{(4-pyridinylmethyl)sulfonyl}piperidine-2-carboxamide]	–
1.7	13	CC(C)[C@H](NC(=O)c1ccc2ccccc2n1)C(=O)N[C@@H](Cc1ccccc1)[C@H](O)CN1CC[C@@H](S(=O)(=O)c2ccccn2)C[C@H]1C(=O)NC(C)(C)C [Table V, entry 20, N-tert-butyl-1-{2(S)(R)-hydroxy-4-phenyl-3(S)-{{N-(2-quinolylinylcarbonyl)valyl}amino}butyl}-4(R)-(2-pyridinylsulfonyl)piperidine-2-carboxamide]	–
1.7	25	CC(C)[C@H](NC(=O)c1ccc2ccccc2n1)C(=O)N[C@@H](Cc1ccccc1)[C@H](O)CN1CC[C@@H](S(=O)(=O)c2ccncc2)C[C@H]1C(=O)NC(C)(C)C [Table V, entry 21, N-tert-butyl-1-{2(R)-hydroxy-4-phenyl-3(S)-{{N-(2-quinolylinylcarbonyl)valyl}amino}butyl}-4(R)-(4-pyridinylsulfonyl)piperidine-2(S)-carboxamide]	–
2.4	11	Cc1cc(S[C@@H]2CCN(C[C@@H](O)[C@H](Cc3ccccc3)NC(=O)[C@@H](NC(=O)c3ccc4ccccc4n3)C(C)C)[C@H](C(=O)NC(C)(C)C)C2)nc(C)n1 [Table V, entry 22, N-tert-butyl-1-{2(R)-hydroxy-4-phenyl-3(S)-{{N-(2-quinolylinylcarbonyl)valyl}amino}butyl}-4(R)-{(2,6-dimethyl-4-pyrimidinyl)thio}piperidine-2(S)-carboxamide]	–

Compound	IC50 (HIV protease) [nM]	EC50 [1, 2] [nM]	EC50 [1] [nM]
CC(C)[C@H](NC(=O)c1ccc2ccccc2n1)C(=O)N[C@@H](Cc1ccccc1)C(O)CN1CC[C@@H](S(=O)(=O)c2ccccc2)CC1C(=O)NC(C)(C)C (stereo partly drawn) [Table V, entry 14, N-tert-butyl-1-{2(S)(R)-hydroxy-4-phenyl-3(S)-{{N-(2-quinolylinylcarbonyl)valyl}amino}butyl}-4(R)-(phenylsulfonyl)piperidine-2-carboxamide]	2.9	–	23
